# Results taken from ChEMBL document CHEMBL1149689, “Pomiferin, histone deacetylase inhibitor isolated from the fruits of Maclura pomifera” (Bioorg Med Chem Lett, 2007).
# What was measured:
# [1] = test system: NCI-H23; assay: cells; type: functional; conditions: Homo sapiens, NCI-H23, 21 h
# Description: Growth inhibition of human NCI-H23 cells after 21 hrs by MTT assay
# [2] = target: Histone deacetylase; assay: Inhibition of HDAC in HeLa cells; type: cell-based, Homo sapiens
# [3] = test system: PC-3; assay: cells; type: functional; conditions: Homo sapiens, PC-3, 21 h
# Description: Growth inhibition of human PC3 cells after 21 hrs by MTT assay
# [4] = test system: HCT-15; assay: cells; type: functional; conditions: Homo sapiens, HCT-15, 21 h
# Description: Growth inhibition of human HCT15 cells after 21 hrs by MTT assay
# [5] = test system: MDA-MB-231; assay: cells; type: functional; conditions: Homo sapiens, MDA-MB-231, 21 h
# Description: Growth inhibition of human MDA-MB-231 cells after 21 hrs by MTT assay
# [6] = in vitro; conditions: human, hepatocytes
# Description: Growth inhibition of human hepatocytes after 21 hrs by MTT assay
# [7] = test system: ACHN; assay: cells; type: functional; conditions: Homo sapiens, 21 h
# Description: Growth inhibition of human ACHN cells after 21 hrs by MTT assay
# [8] = test system: LOX IMVI; assay: cells; type: functional; conditions: Homo sapiens, 21 h
# Description: Growth inhibition of human LOX-IMVI cells after 21 hrs by MTT assay
GI50 [1],IC50 [2],GI50 [3],GI50 [4],GI50 [5],GI50 at 21 h [6],GI50 [7],Structure (SMILES),GI50 [8]
5.14 µM,1.05 µM,3.95 µM,1.32 µM,2.92 µM,123 µM,3.18 µM,CC(C)=CCc1c2c(c3occ(-c4ccc(O)c(O)c4)c(=O)c3c1O)C=CC(C)(C)O2 [POMIFERIN],3.34 µM
12 µM,6.53 µM,12.3 µM,9.65 µM,11.3 µM,> 500 µM,12.1 µM,CC(C)=CCc1c2c(c3occ(-c4ccc(O)cc4)c(=O)c3c1O)C=CC(C)(C)O2 [OSAJIN],11 µM
